Results taken from US7250397B2, “Antiarrhythmic peptides” (Zealand Pharma A/S, priority 2000, dated 2007).
“Also recorded” adds a separate entry of the source.

Experiments:
[1] = test system: alkaline phosphatase (ALP) activity of human osteoblasts; assay: Alkaline phosphatase (ALP) assay in human osteoblasts; type: cell-based; conditions: four days; 10^−13-10^−6 M; normal culture conditions
Protocol: Human osteblast cells (hOB): Cells were isolated from human bone marrow obtained by puncture of the posterior iliac spine of healthy volunteers (aged 20-36): 10-15 ml marrow material was collected in 15 ml PBS+Ca,Mg (Life Technologies, Cat.No. 14040) with 100 U/ml Heparin (Sigma, Cat.No. H-3149). The mononuclear fraction of the marrow was isolated on a Lymphoprep gradient (Nycomed Pharma, Cat.No. 1001967), by centrifugation at 2200 rpm for 30 min. After harvesting, the mononuclear fraction was washed once with culture medium and centrifuged at 1800 rpm for 10 min. Subsequently cells were counted and plated in culture medium at 8×10^6 cells/100 mm dish. hOB medium (all reagents obtained from Life Technologies): MEM w/o Phenol Red w/Glutamax (Cat.No. 041-93013) supplemented with 10% heat inactivated fetal calf serum (Cat.No. 10106) and 0.1% Penicillin/Streptomycin (Cat.No. 15140). Medium was changed the following day and the cells were cultured at 37° C. in 5%CO2 with medium change every 7 days. After 3-4 weeks of culture the cells had reached 70% confluence. […]
• Day 1: Cells were plated in 96-well plates at a conc. of 8000 cells/well (hOB) or 3000 cells/well (ROS) in 200 μl normal culture medium. • Day 2: Medium was changed on the cells. • Day 4: (Day 3 for ROS): Cells were washed with 200 μl MEM, 0.1% BSA (Sigma, Cat.No. A-9418). […] Absorbance was measured using a plate reader at 405 nm. […]

[2] = test system: calcium-induced arrythmias; assay: Calcium-induced arrhythmia model in mice; type: in vivo; conditions: mouse, in vivo, iv
Protocol: The antiarrhythmic effects of compounds of this invention were tested in an in vivo model of calcium-induced arrythmias according to the model of Lynch et al.^[37]. […]. Commercial solutions of hypnorm and midazolam were diluted 1:1 in distilled water and one part diluted Hypnorm® is mixed with one part diluted midazolam.
The anaesthesia was induced by s.c. administration in a dose of 0.05-0.075 μl/10 gram mouse. An i.v cannula was inserted into the tail vein. The lead II ECG signal was recorded continuously by positioning of a stainless steel ECG electrodes on the right forelimb and on the left hind limb. The ground electrode was placed on the right hind limb. The signal was amplified (x 5.000-10.000) and filtered (0.1-150 Hz) via a Hugo Sachs Electronic model 689 ECG module. The analogue signal was digitised via a 12 bit data acquisition board (Data Translation model DT321) and sampled at 1000 Hz using the Notocord HEM 3.1 software for Windows NT. After a 10-min equilibration period, the test sample of drug was injected into the tail vein. Mice pre-treated with vehicle were tested as a measure of the control level in untreated animals. The injection volume was 100 μl in all experiments. Infusion of CaCl2 (30 mg/ml, 0.1 ml/min≈100 mg/kg/min (calciumchlorid-2-hydrat, Riedel-de Häen, Germany)) was started 3 min after i.v. administration of drug or vehicle. The time lag to onset of 2nd degree AV-block was determined as the time from the start of CaCl2 infusion until the first arrhythmic event occured. An event of 2nd degree AV-block was defined as intermittent failure of the AV conduction characterised by a P-wave without the concomitant QRS complex.
Responses were expressed relative to the time until 2nd degree AV-block occurred in vehicle treated mice.

[3] = test system: phospho-inositol turnover in neonatal rat cardiomyocytes; assay: Phosphoinositol turnover in rat primary cardiomyocytes; type: cell-based; conditions: 100 nM; control conditions
Protocol: Neonatal Wistar rats (1-2 days old) are used. Hank's calcium- and magnesium-free balanced salt solution, buffered with 10 mM HEPES is used for washing during cell separation procedures. The hearts are excised, the ventricles isolated and the tissue cut into small pieces. The myocardial cells are isolated by stepwise enzymatic degradation with collagenase 0.05%, as described by^[35]. After repeated rounds of centrifugation and washing, the precipitated cells are resuspended in culture medium M199 with Earle's salt, 10% NCS, penicillin (75 U/mL), and streptomycin (75 U/mL) and pre-plated in a Petri dish for 90 minutes. The non-adherent cells are collected in the culture medium and plated in multidishes at 2.5*10^5 cells/well. The cultures are kept in a water-saturated CO2-incubator at 37° C. The cardiomyocyte cultures are used for analyses after 6-7 days.
Cardiomyocyte cultures are incubated for 48 hours in culture medium containing […] myo-[2-^3H]inositol to label the inositol phospholipids. On the day of analysis the medium is replaced by a buffer solution containing lithium and incubated at 37° C., as described by Meier et al.^[36]. After at least five minutes this buffer is replaced by the same volume of buffer containing test compound and incubated for exactly 20 minutes. The reaction is stopped by rapid replacement of the buffer by ice cold 4% v/v perchloric acid (PCA) and incubation for at least 20 minutes at 0° C. The PCA-extract is neutralised and the [^3H]inositol phosphates are separated by anion-exchange chromatography using Amprep™ columns containing 100 mg SAX Quaternary amine. The [^3H]inositol mono-phosphates are eluted and radioactivity in the fraction measured by liquid scintillation counting.
Before adding test substances to the cultures, the cells are depleted of glucose and oxygen by incubating them in a N2-atmosphere in glucose-free lithium-buffer for 10 minutes at 37° C. Control cells are incubated likewise only at normal atmospheric conditions and in a buffer containing glucose.

Ac-D-Tyr-D-Pro-D-4Hyp-Gly-D-Ala-Gly-NH2 [Compound 2]
ALP activity compared to untreated controls [1]: increased ALP activity at most of the concentrations tested; also recorded: stimulated ALP activity | In vivo activity [2]: +++ (key: +++: >60% increase in time until arrhythmia; ++: 30-50% increase in time until arrhythmia; +: 15-29% increase in time until arrhythmia; (+): ≦15% increase in time until arrythmia) | effect on noradrenaline (300 nM) induced increase in phospho-inositol turnover [3]: no further effect
